This note sets out measurements from patent publication US20240002374A1, “5-MEMBERED HETEROARYLAMINOSULFONAMIDES FOR TREATING CONDITIONS MEDIATED BY DEFICIENT CFTR ACTIVITY” (Genzyme Corporation, priority 2019, published 2024).

The experiment deals with T1, CFTR (primary human bronchial epithelial cells from a ΔF508 homozygous CF donor, CF-HBE cells) (Homo sapiens, UniProt P13569, DEL508-508).
T1 construct: Primary human bronchial epithelial cells from a ΔF508 homozygous CF donor; host or cells: primary human bronchial epithelial cells (CF-HBE) from a ΔF508 homozygous CF donor
T1 sequence (P13569 with tags, fused parts or gaps DEL508-508): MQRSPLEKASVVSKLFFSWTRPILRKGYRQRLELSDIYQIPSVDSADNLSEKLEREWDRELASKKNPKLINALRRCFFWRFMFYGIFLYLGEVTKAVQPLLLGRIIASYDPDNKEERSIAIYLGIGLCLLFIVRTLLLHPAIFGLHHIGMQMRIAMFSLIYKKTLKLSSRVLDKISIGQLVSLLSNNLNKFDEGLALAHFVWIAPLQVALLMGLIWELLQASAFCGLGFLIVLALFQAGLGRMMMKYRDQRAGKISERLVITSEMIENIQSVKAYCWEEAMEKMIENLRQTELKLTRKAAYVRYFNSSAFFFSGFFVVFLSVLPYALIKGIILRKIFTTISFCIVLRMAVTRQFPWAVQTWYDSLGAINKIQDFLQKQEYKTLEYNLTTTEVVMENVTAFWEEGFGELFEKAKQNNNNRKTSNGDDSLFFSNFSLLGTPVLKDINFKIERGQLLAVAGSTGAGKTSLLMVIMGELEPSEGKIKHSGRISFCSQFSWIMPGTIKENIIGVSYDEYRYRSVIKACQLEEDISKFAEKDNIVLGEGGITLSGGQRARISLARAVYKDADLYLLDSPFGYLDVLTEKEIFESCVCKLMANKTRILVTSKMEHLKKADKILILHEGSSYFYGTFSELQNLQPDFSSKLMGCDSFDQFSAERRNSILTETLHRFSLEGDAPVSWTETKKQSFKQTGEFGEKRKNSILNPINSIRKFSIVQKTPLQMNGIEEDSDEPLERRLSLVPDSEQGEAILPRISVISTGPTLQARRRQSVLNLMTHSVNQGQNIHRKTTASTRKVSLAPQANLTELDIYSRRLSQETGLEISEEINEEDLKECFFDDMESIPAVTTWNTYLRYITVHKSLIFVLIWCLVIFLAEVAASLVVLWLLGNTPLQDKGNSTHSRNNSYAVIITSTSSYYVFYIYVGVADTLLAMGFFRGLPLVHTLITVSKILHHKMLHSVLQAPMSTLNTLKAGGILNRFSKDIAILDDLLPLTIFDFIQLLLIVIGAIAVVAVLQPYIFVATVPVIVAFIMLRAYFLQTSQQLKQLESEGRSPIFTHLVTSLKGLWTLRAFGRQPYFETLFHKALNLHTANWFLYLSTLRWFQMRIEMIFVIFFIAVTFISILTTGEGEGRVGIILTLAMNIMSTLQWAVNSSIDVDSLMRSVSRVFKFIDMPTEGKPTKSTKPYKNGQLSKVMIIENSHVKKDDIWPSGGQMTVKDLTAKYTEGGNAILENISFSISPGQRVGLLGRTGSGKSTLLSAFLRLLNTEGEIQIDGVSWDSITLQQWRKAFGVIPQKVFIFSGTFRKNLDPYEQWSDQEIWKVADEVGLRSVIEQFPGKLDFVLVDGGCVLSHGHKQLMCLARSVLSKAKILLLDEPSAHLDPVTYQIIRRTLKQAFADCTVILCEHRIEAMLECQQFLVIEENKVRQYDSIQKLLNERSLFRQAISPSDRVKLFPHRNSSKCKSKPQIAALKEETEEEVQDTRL
In words: TECC24 recording of CFTR-mediated transepithelial chloride transport (TECC24 AUC fold over DMSO @ 3 μM). The format is cell-based. Conditions: 3 uM test agent; CF-HBE cells (ΔF508 homozygous) incubated 48 h; ratio of test agent AUC of forskolin-stimulated IEQ to vehicle (DMSO) AUC. As to the method:
Example 510: TECC24 AUC Fold Over DMSO @ 3 μM
The effects of a test agent on CFTR-mediated transepithelial chloride transport was measured using TECC24 recording analysis. Test agents were solubilized in DMSO. Solubilized test agents were mixed with incubation medium containing DMEM/F12, Ultroser G (2%; Crescent Chemical, catalog #67042), Hyclone Fetal Clone H (2%; GE Healthcare, catalog #SH30066.02), bovine brain extract (0.25%; Lonza, catalog #CC-4098), insulin (2.5 μg/mL), IL-13 (10 ng/mL), hydrocortisone (20 nM), transferrin (2.5 μg/mL), triiodothyronine (500 nM), ethanolamine (250 nM), epinephrine (1.5 μM), phosphoethanolamine (250 nM), and retinoic acid (10 nM). Primary human bronchial epithelial cells from a ΔF508 homozygous CF donor (CF-HBE cells; from University of North Carolina Cystic Fibrosis Tissue Procurement Center), grown on Transwell HTS 24-well cell culture inserts (Costar, catalog #3378), were exposed to test agents or controls dissolved in incubation medium. The CF-HBE cells were cultured at 36.5° C. for 48 h before TECC24 recordings were performed in the presence or absence of test agent, a positive control or vehicle (DMSO).
Following incubation, the transwell cell culture inserts containing the test agent or control-treated CF-HBE cells were loaded onto a TECC24 apparatus (TECC v7 or MTECC v2; EP Design) to record the transepithelial voltage (VT) and resistance (TEER) using 4 AgCl electrodes per well configured in current-clamp mode. The apical and basolateral bath solutions both contained (in mM) 140 NaCl, 5 KCl, 2 CaCl2), 1 MgCl2, 10 Hepes, and 10 glucose (adjusted to pH 7.4 with NaOH) […]. To inhibit basal Na+ absorption, the ENaC inhibitor benzamil (10 μM) was added to the bath. Then, the adenylate cyclase activator, forskolin (10 μM), was added to the bath to activate CFTR. The forskolin-stimulated Cl− transport was halted by addition of bumetanide (20 μM), an inhibitor of the basolateral chloride co-transporter NKCC1, to the bath to confirm that the detected signal was chloride dependent. VT and TEER recordings were digitally acquired at routine intervals using TECC or MTECC software (EP Design). VT and TEER were transformed into equivalent transepithelial Cl− current (IEQ), and the Area Under the Curve (AUC) of the IEQ time course between forskolin and bumetanide addition is generated using Excel (Microsoft). Efficacy is expressed as the ratio of the test agent AUC divided by vehicle AUC. EC50s based on AUC are generated using the non-linear regression log(agonist) vs. response function in Prism software (GraphPad) with Hill Slope fixed=1.
If a test agent increased the AUC of the forskolin-stimulated IEQ relative to vehicle in CF-HBE cells, and this increase was inhibited by bumetanide, then the test agent was considered a CFTR corrector.
As for `Cc1cccc(C(F)(F)F)c1-c1nc(NS(=O)(=O)c2cccc(N)c2)sc1-c1cccc(OCCC(C)(C)C)c1` [Example 14, 3-Amino-N-(5-(3-(3,3-dimethylbutoxy)phenyl)-4-(2-methyl-6-(trifluoromethyl)phenyl)thiazol-2-yl)benzenesulfonamide], the “TECC AUC vs. DMSO @ 3 uM” value is on record as “A (“A” refers to AUC > 5)”.
To `Cc1cccc(C(F)(F)F)c1-c1nc(NS(=O)(=O)c2ccnc(N)c2)sc1-c1cc(F)cc(OCCC(C)(C)C)c1` [Example 15, 2-Amino-N-(5-(3-(3,3-dimethylbutoxy)-5-fluorophenyl)-4-(2-methyl-6-(trifluoromethyl)phenyl)thiazol-2-yl)pyridine-4-sulfonamide] belongs “A (“A” refers to AUC > 5)”; to `Cc1cccc(C)c1-c1nc(NS(=O)(=O)c2ccccc2)sc1-c1cccc(OCCC(C)(C)C)c1` [Example 16, N-(5-(3-(3,3-Dimethylbutoxy)phenyl)-4-(2,6-dimethylphenyl)thiazol-2-yl)benzenesulfonamide], “A (“A” refers to AUC > 5)”.
For the compound `Cc1cccc(C)c1-c1nc(NS(=O)(=O)c2ccccc2)sc1-c1cc(F)cc(OCCC(C)(C)C)c1` [Example 17, N-(5-(3-(3,3-Dimethylbutoxy)-5-fluorophenyl)-4-(2,6-dimethylphenyl)thiazol-2-yl)benzenesulfonamide], the “TECC AUC vs. DMSO @ 3 uM” value is “B (“B” refers to AUC 2-5)”.
For `CC(C)c1ccccc1-c1nc(NS(=O)(=O)c2cccc(N)c2)sc1-c1cccc(OCCC(C)(C)C)c1` [Example 18, 3-Amino-N-(5-(3-(3,3-dimethylbutoxy)phenyl)-4-(2-isopropylphenyl)thiazol-2-yl)benzenesulfonamide] the value was “A (“A” refers to AUC > 5)”; for `CC(C)(C)CCOc1cccc(-c2sc(NS(=O)(=O)c3cccc(NC(=O)C4CC4)c3)nc2-c2ccccc2C(F)(F)F)c1` [Example 19, N-(3-(N-(5-(3-(3,3-Dimethylbutoxy)phenyl)-4-(2-(trifluoromethyl)phenyl)thiazol-2-yl)sulfamoyl)phenyl)cyclopropanecarboxamide], “A (“A” refers to AUC > 5)”.
To `CC(C)(C)CCOc1cccc(-c2sc(NS(=O)(=O)c3cccc(NC(=O)C4(F)CC4)c3)nc2-c2ccccc2C(F)(F)F)c1` [Example 20, N-(3-(N-(5-(3-(3,3-Dimethylbutoxy)phenyl)-4-(2-(trifluoromethyl)phenyl)thiazol-2-yl)sulfamoyl)phenyl)-1-fluorocyclopropane-1-carboxamide] belongs “A (“A” refers to AUC > 5)”; to `CNc1cccc(S(=O)(=O)Nc2nc(-c3ccccc3C(C)C)c(-c3cccc(OCCC(C)(C)C)c3)s2)c1` [Example 21, N-(5-(3-(3,3-Dimethylbutoxy)phenyl)-4-(2-isopropylphenyl)thiazol-2-yl)-3-(methylamino)benzenesulfonamide], “A (“A” refers to AUC > 5)”.
To `Cc1cccc(C)c1-c1nc(NS(=O)(=O)c2cccc(C(F)F)c2)sc1-c1cccc(OCCC(C)(C)C)c1` [Example 22, 3-(Difluoromethyl)-N-(5-(3-(3,3-dimethylbutoxy)phenyl)-4-(2,6-dimethylphenyl)thiazol-2-yl)benzenesulfonamide] belongs “A (“A” refers to AUC > 5)”.
For the compound `CC(C)c1ccccc1-c1nc(NS(=O)(=O)c2cccc(N)c2F)sc1-c1cccc(OCC(F)(F)C(C)(C)C)c1` [Example 23, 3-Amino-N-(5-(3-(2,2-difluoro-3,3-dimethylbutoxy)phenyl)-4-(2-isopropylphenyl)thiazol-2-yl)-2-fluorobenzenesulfonamide], the “TECC AUC vs. DMSO @ 3 uM” value is on record as “A (“A” refers to AUC > 5)”.
As to `CC(C)c1ccccc1-c1nc(NS(=O)(=O)c2cccc(NC3CC(C)(O)C3)c2)sc1-c1ccc(F)c(OCC(F)(F)C(C)(C)C)c1` (stereo not drawn) [Example 24, N-(5-(3-(2,2-Difluoro-3,3-dimethylbutoxy)-4-fluorophenyl)-4-(2-isopropylphenyl)thiazol-2-yl)-3-((3-hydroxy-3-methylcyclobutyl)amino)benzenesulfonamide], the “TECC AUC vs. DMSO @ 3 uM” value was “A (“A” refers to AUC > 5)”.
To `Cc1cccc(C)c1-c1nc(NS(=O)(=O)c2cccc(N)c2F)sc1-c1cc(F)cc(OCCC(C)(C)C)c1` [Example 25, 3-Amino-N-(5-(3-(3,3-dimethylbutoxy)-5-fluorophenyl)-4-(2,6-dimethylphenyl)thiazol-2-yl)-2-fluorobenzenesulfonamide] belongs “A (“A” refers to AUC > 5)”; to `CC(C)c1ccccc1-c1nc(NS(=O)(=O)c2cc(N)ccc2F)sc1-c1ccc(F)c(OCC(F)(F)C(C)(C)C)c1` [Example 26, 5-Amino-N-(5-(3-(2,2-difluoro-3,3-dimethylbutoxy)-4-fluorophenyl)-4-(2-isopropylphenyl)thiazol-2-yl)-2-fluorobenzenesulfonamide], “A (“A” refers to AUC > 5)”; to `CNc1cccc(S(=O)(=O)Nc2nc(-c3c(C)cccc3C)c(-c3cccc(OCCC(C)(C)C)c3)s2)c1` [Example 27, N-(5-(3-(3,3-Dimethylbutoxy)phenyl)-4-(2,6-dimethylphenyl)thiazol-2-yl)-3-(methylamino)benzenesulfonamide], “A (“A” refers to AUC > 5)”.
For `Cc1cccc(C)c1-c1nc(NS(=O)(=O)c2cccc(-n3cccn3)c2)sc1-c1cccc(OC2CCC(C)(C)C2)c1` (stereo not drawn) [Example 28, N-(5-(3-((3,3-Dimethylcyclopentyl)oxy)phenyl)-4-(2,6-dimethylphenyl)thiazol-2-yl)-3-(1H-pyrazol-1-yl)benzenesulfonamide] the value was “A (“A” refers to AUC > 5)”.
As to `Cc1cccc(C)c1-c1nc(NS(=O)(=O)c2cccc(-c3ccn[nH]3)c2)sc1-c1cccc(OC2CCC(C)(C)C2)c1` (stereo not drawn) [Example 29, N-(5-(3-((3,3-Dimethylcyclopentyl)oxy)phenyl)-4-(2,6-dimethylphenyl)thiazol-2-yl)-3-(1H-pyrazol-5-yl)benzenesulfonamide], the “TECC AUC vs. DMSO @ 3 uM” value is recorded as “A (“A” refers to AUC > 5)”.
`CC(C)c1ccccc1-c1nc(NS(=O)(=O)c2cccc(N)n2)sc1-c1cccc(OCCC(C)(C)C)c1` [Example 30, 6-Amino-N-(5-(3-(3,3-Dimethylbutoxy)phenyl)-4-(2-isopropylphenyl)thiazol-2-yl)pyridine-2-sulfonamide]: the “TECC AUC vs. DMSO @ 3 uM” value is “A (“A” refers to AUC > 5)”.
Take `Cc1cccc(C)c1-c1nc(NS(=O)(=O)c2cccc(N)n2)sc1-c1cc(F)cc(OCCC(C)(C)C)c1` [Example 31, 6-Amino-N-(5-(3-(3,3-dimethylbutoxy)-5-fluorophenyl)-4-(2,6-dimethylphenyl)thiazol-2-yl)pyridine-2-sulfonamide]: the “TECC AUC vs. DMSO @ 3 uM” value is listed as “A (“A” refers to AUC > 5)”.
Regarding `Cc1cccc(C)c1-c1nc(NS(=O)(=O)c2ccnc(N)c2)sc1-c1cc(F)cc(OCCC(C)(C)C)c1` [Example 32, 2-Amino-N-(5-(3-(3,3-dimethylbutoxy)-5-fluorophenyl)-4-(2,6-dimethylphenyl)thiazol-2-yl)pyridine-4-sulfonamide], the “TECC AUC vs. DMSO @ 3 uM” value was “A (“A” refers to AUC > 5)”.
For `CC(C)c1ccccc1-c1nc(NS(=O)(=O)c2ccnc(N)c2)sc1-c1cc(F)cc(OCCC(C)(C)C)c1` [Example 33, 2-Amino-N-(5-(3-(3,3-dimethylbutoxy)-5-fluorophenyl)-4-(2-isopropylphenyl)thiazol-2-yl)pyridine-4-sulfonamide] the value was “A (“A” refers to AUC > 5)”.
To `Cc1cccc(OC(C)C)c1-c1nc(NS(=O)(=O)c2ccnc(N)c2)sc1-c1cc(F)cc(OCCC(C)(C)C)c1` [Example 34, 2-Amino-N-(5-(3-(3,3-dimethylbutoxy)-5-fluorophenyl)-4-(2-isopropoxy-6-methylphenyl)thiazol-2-yl)pyridine-4-sulfonamide] belongs “A (“A” refers to AUC > 5)”.
